Source: US10278988B2, “Reducing the proliferation of carcinoma cells by administration of a poly-oxygenated metal hydroxide” (priority 2016, dated 2019)

System: mammal
Settings: in vivo

“poly-oxygenated aluminum hydroxide [Ox66™]” was tested, and the “negative effects in toxicology studies” value was “does not create any negative effects”.
